# Assay results from patent US10336732B2, “1-heterocyclyl isochromanyl compounds and analogs for treating CNS disorders” (Sunovion Pharmaceuticals Inc., priority 2015, dated 2019).
# Tested on: mice
# Assay: Neuropharmacological assay (SmartCube), behavioral signature of compound-treated mice
# Format: in vivo
# Settings: i.p. 15 min before behavioral test, most efficacious dose(s) of 3 doses
# Text: Neurosci. […] As reported in Roberds, because psychiatric diseases generally result from disorders of cell-cell communication or circuitry, intact systems are useful in detecting improvement in disease-relevant endpoints. These endpoints are typically behavioral in nature, often requiring human observation and interpretation. To facilitate testing of multiple compounds for behavioral effects relevant to psychiatric disease, PsychoGenics, Inc. (Tarrytown, N.Y., “PGI”) developed SmartCube™, an automated system in which behaviors of compound-treated mice are captured by digital video and analyzed with computer algorithms. […] PGI Analytical Systems uses data from SmartCube™ to compare the behavioral signature of a test compound to a database of behavioral signatures obtained using a large set of diverse reference compounds. (The composition of the database as well as validation of the method is further described in Roberds). In this way, the neuropharmacological effects of a test compound can be predicted by similarity to major classes of compounds, such as antipsychotics, anxiolytics and antidepressants.
# The SmartCube™ system produces an activity signature indicating the probability that the activity of the test compound at the administered dose matches a given class of neuropharmacological agents. (See, e.g., Roberds, FIGS. 2 and 3). The test compound is simultaneously compared against multiple classes of agents; thus, a separate probability is generated for each behavioral effect measured (e.g., anxiolytic activity, analgesic activity, etc.). In Table 4, these probabilities are reported for each behavioral effect measured as follows:
# Provided compounds were dissolved in a mixture of Pharmasolve™ (N-methyl-2-pyrrolidone), polyethylene glycol and propylene glycol, and were injected i.p. 15 min. before the behavioral test. For each compound, injections were administered at 3 different doses. For each behavioral effect measured, results for the most efficacious dose(s) are presented.
Structure (SMILES),AD: ADHD (probability that behavioral signature matches class),AG: analgesic (probability that behavioral signature matches class),AX: anxiolytic (probability that behavioral signature matches class),CE: cognitive enhancer (probability that behavioral signature matches class),DP: anti-depressant (probability that behavioral signature matches class),HA: hallucinogen (probability that behavioral signature matches class),MS: mood stabilizer (probability that behavioral signature matches class),PS: anti-psychotic (probability that behavioral signature matches class),SD: sedative hypnotic (probability that behavioral signature matches class),UN: uncharacterized CNS activity (probability that behavioral signature matches class)
"Fc1cccc2c1[C@@H]([C@@H]1CCCN1)OCC2 [Compound I-2, (S)-2-((S)-8-fluoroisochroman-1-yl)pyrrolidine]",+ (LOQ ≤ + <5%),+ (LOQ ≤ + <5%),++ (5% ≤ ++ <25%),+ (LOQ ≤ + <5%),+ (LOQ ≤ + <5%),+ (LOQ ≤ + <5%),++ (5% ≤ ++ <25%),++ (5% ≤ ++ <25%),++ (5% ≤ ++ <25%),+ (LOQ ≤ + <5%)
"Fc1cccc2c1[C@@H]([C@H]1CCCN1)OCC2 [Compound I-3, (R)-2-((S)-8-fluoroisochroman-1-yl)pyrrolidine]",+ (LOQ ≤ + <5%),++ (5% ≤ ++ <25%),++ (5% ≤ ++ <25%),++ (5% ≤ ++ <25%),+++ (25% ≤ +++ <50%),+ (LOQ ≤ + <5%),++ (5% ≤ ++ <25%),++ (5% ≤ ++ <25%),++ (5% ≤ ++ <25%),+++ (25% ≤ +++ <50%)
"Fc1cccc2c1[C@H]([C@H]1CCCN1)OCC2 [Compound I-4, (R)-2-((R)-8-fluoroisochroman-1-yl)pyrrolidine]",+ (LOQ ≤ + <5%),++ (5% ≤ ++ <25%),+++ (25% ≤ +++ <50%),++ (5% ≤ ++ <25%),++ (5% ≤ ++ <25%),+ (LOQ ≤ + <5%),+ (LOQ ≤ + <5%),++ (5% ≤ ++ <25%),+ (LOQ ≤ + <5%),+ (LOQ ≤ + <5%)
"Fc1ccc2c(c1)[C@@H]([C@@H]1CCCN1)OCC2 [Compound I-6, (2S)-2-((S)-7-fluoroisochroman-1-yl)pyrrolidine]",+ (LOQ ≤ + <5%),+ (LOQ ≤ + <5%),++ (5% ≤ ++ <25%),+ (LOQ ≤ + <5%),++ (5% ≤ ++ <25%),+ (LOQ ≤ + <5%),+ (LOQ ≤ + <5%),++ (5% ≤ ++ <25%),+ (LOQ ≤ + <5%),+++ (25% ≤ +++ <50%)
"Fc1ccc2c(c1)[C@H]([C@H]1CCCN1)OCC2 [Compound I-7, (R)-2-((R)-7-fluoroisochroman-1-yl)pyrrolidine]",+ (LOQ ≤ + <5%),++ (5% ≤ ++ <25%),++ (5% ≤ ++ <25%),++ (5% ≤ ++ <25%),++ (5% ≤ ++ <25%),+ (LOQ ≤ + <5%),+ (LOQ ≤ + <5%),++ (5% ≤ ++ <25%),+ (LOQ ≤ + <5%),+++ (25% ≤ +++ <50%)
"Fc1ccc2c(c1)[C@@H]([C@H]1CCCN1)OCC2 [Compound I-8, (R)-2-((S)-7-fluoroisochroman-1-yl)pyrrolidine]",+ (LOQ ≤ + <5%),+ (LOQ ≤ + <5%),++ (5% ≤ ++ <25%),++ (5% ≤ ++ <25%),+++ (25% ≤ +++ <50%),+ (LOQ ≤ + <5%),+ (LOQ ≤ + <5%),+++ (25% ≤ +++ <50%),++ (5% ≤ ++ <25%),++ (5% ≤ ++ <25%)
"Fc1ccc2c(c1)CCO[C@@H]2[C@@H]1CCCN1 [Compound I-10, (S)-2-((S)-6-fluoroisochroman-1-yl)pyrrolidine]",+ (LOQ ≤ + <5%),++ (5% ≤ ++ <25%),++ (5% ≤ ++ <25%),++ (5% ≤ ++ <25%),++ (5% ≤ ++ <25%),+ (LOQ ≤ + <5%),+ (LOQ ≤ + <5%),++ (5% ≤ ++ <25%),+ (LOQ ≤ + <5%),+ (LOQ ≤ + <5%)
"Fc1ccc2c(c1)CCO[C@@H]2[C@H]1CCCN1 [Compound I-11, (R)-2-((S)-6-fluoroisochroman-1-yl)pyrrolidine]",+ (LOQ ≤ + <5%),++ (5% ≤ ++ <25%),++ (5% ≤ ++ <25%),++ (5% ≤ ++ <25%),++ (5% ≤ ++ <25%),+ (LOQ ≤ + <5%),+ (LOQ ≤ + <5%),+++ (25% ≤ +++ <50%),+ (LOQ ≤ + <5%),++ (5% ≤ ++ <25%)
"Fc1ccc2c(c1)CCO[C@H]2[C@H]1CCCN1 [Compound I-12, (R)-2-((R)-6-fluoroisochroman-1-yl)pyrrolidine]",+ (LOQ ≤ + <5%),++ (5% ≤ ++ <25%),++ (5% ≤ ++ <25%),+ (LOQ ≤ + <5%),++ (5% ≤ ++ <25%),+ (LOQ ≤ + <5%),+ (LOQ ≤ + <5%),++ (5% ≤ ++ <25%),+ (LOQ ≤ + <5%),++++ (50% ≤ ++++)

# Same assay, conditions: i.p. 15 min before behavioral test, most efficacious dose(s) of 3 doses
row,Structure (SMILES),XG: anxiogenic (probability that behavioral signature matches class)
1,"Fc1cccc2c1[C@@H]([C@@H]1CCCN1)OCC2 [Compound I-2, (S)-2-((S)-8-fluoroisochroman-1-yl)pyrrolidine]",+ (LOQ ≤ + <5%)
2,"Fc1cccc2c1[C@@H]([C@H]1CCCN1)OCC2 [Compound I-3, (R)-2-((S)-8-fluoroisochroman-1-yl)pyrrolidine]",+ (LOQ ≤ + <5%)
3,"Fc1cccc2c1[C@H]([C@H]1CCCN1)OCC2 [Compound I-4, (R)-2-((R)-8-fluoroisochroman-1-yl)pyrrolidine]",+ (LOQ ≤ + <5%)
4,"Fc1ccc2c(c1)[C@@H]([C@@H]1CCCN1)OCC2 [Compound I-6, (2S)-2-((S)-7-fluoroisochroman-1-yl)pyrrolidine]",+ (LOQ ≤ + <5%)
5,"Fc1ccc2c(c1)[C@H]([C@H]1CCCN1)OCC2 [Compound I-7, (R)-2-((R)-7-fluoroisochroman-1-yl)pyrrolidine]",+ (LOQ ≤ + <5%)
6,"Fc1ccc2c(c1)[C@@H]([C@H]1CCCN1)OCC2 [Compound I-8, (R)-2-((S)-7-fluoroisochroman-1-yl)pyrrolidine]",+ (LOQ ≤ + <5%)
7,"Fc1ccc2c(c1)CCO[C@@H]2[C@@H]1CCCN1 [Compound I-10, (S)-2-((S)-6-fluoroisochroman-1-yl)pyrrolidine]",+ (LOQ ≤ + <5%)
8,"Fc1ccc2c(c1)CCO[C@@H]2[C@H]1CCCN1 [Compound I-11, (R)-2-((S)-6-fluoroisochroman-1-yl)pyrrolidine]",+ (LOQ ≤ + <5%)
9,"Fc1ccc2c(c1)CCO[C@H]2[C@H]1CCCN1 [Compound I-12, (R)-2-((R)-6-fluoroisochroman-1-yl)pyrrolidine]",+ (LOQ ≤ + <5%)
